pIC50: −log10 of the molar value.
Key:
OVCAR-3 cells = test: Inhibition of OVCAR-3 cell proliferation (CellTiter-Glo cell viability); format: cell-based; details: Homo sapiens; OVCAR-3 cells (TP53 R248Q mutation), 72 hours culture with compound; read-out: IC50
Protocol: (§1) Influences of the compounds of the present invention on OVCAR-3 cell proliferation were determined by the following method. OVCAR-3 cells (containing TP53 R248Q mutation) were purchased from the Cell Bank of Shanghai Institute of Biochemistry and Cell Biology, Chinese Academy of Sciences, and cultured in an RPMI 1640 culture medium containing 10% fetal bovine serum, 100 U penicillin and 100 µg/mL streptomycin. A cell viability was determined by a CellTiter-Glo® Luminescent Cell Viability Assay kit (Promega, article number G7573).
(§2) An experimental method was operated according to steps in the instruction of the kit, which was briefly described as follows: a test compound was dissolved in DMSO first to prepare a 10 mM stock solution, then the stock solution was diluted with the culture medium to prepare a test sample, and a final concentration of the compound was in a range of 1000 nM-0.015 nM. Cells in a logarithmic growth phase were inoculated into a 96-well cell culture plate at a density of 1000 cells per well, cultured in a 5% CO2 incubator at 37°C overnight, and then the test compound was added to continuously culture for 72 hours. After the culture was ended, 50 uL of CellTiter-Glo detection solution was added to each well , shaken for 5 minutes, and then allowed to stand for 10 minutes, and subsequently, a luminance value of each well of the sample was read by a microplate reader in a Luminescence mode. By comparing with the numerical value of a control group (0.3% DMSO), a percentage inhibition rate of the compound at each concentration point was calculated, and then nonlinear regression analysis was carried out based on concentration logarithm-inhibition rate of the compound in GraphPad Prism 5 software, so as to obtain an IC50 value of the compound for inhibiting the cell proliferation, which was as shown in Table 1. Table 1 IC50 data of the compounds of the present invention for inhibiting OVCAR-3 cell proliferation

recombinant human KIF18A = target: T1, recombinant human KIF18A (Homo sapiens, UniProt Q8NI77); test: Inhibition of KIF18A enzyme activity (ADP-Glo assay); format: biochemical; details: recombinant human KIF18A 100 nM, ATP 60 µM, tubulin, paclitaxel; read-out: IC50
T1 construct: purchased GenScript
Protocol: Inhibition degrees of the compounds of the present invention on recombinant human KIF18A enzyme activity in vitro were determined by the following method. An ADP-Glo™ Kinase Assay kit (article number V9102) from Promega Company was used in this method. Detailed experimental operation referred to the instruction of the kit.
An experimental process was briefly described as follows: a test compound was dissolved in DMSO first to prepare a stock solution, then the stock solution was gradiently diluted with a reaction buffer A ([…], 0.01% Pluronic F-68), and a final concentration of the test compound in the reaction system was in a range of 10000 nM-0.15 nM; and a KIF18A protein and ATP working solution was prepared by using a reaction buffer B (15 mM Tris, pH 7.5, 10 mM MgCl2, 0.01% Pluronic F-68, 37.5 µg/ml tubulin, 1.25 µM paclitaxel). The reaction was carried out in a 384-well microplate. The test compound and the recombinant human KIF18A protein (final concentration of 100 nM, entrusted to GenScript for expression) were added into the wells and incubated at room temperature for 20 minutes, and subsequently, an ATP solution (component V915A from the ADP-Glo™ Kinase Assay kit, final concentration of 60 µM) was added to the reaction solution and the system was incubated at room temperature for 20 minutes. Subsequently, 5 µL of ADP-Glo Reagent was added to the reaction systemand the system was incubated at room temperature for 50 minutes. Then, 10 µL of Kinase Detection Reagent was added to the reaction system and the system was incubated at room temperature for 30 minutes. After the incubation was ended, a chemiluminiscence intensity value of each well was determined by a microplate reader in a Luminescence mode.

HT-29 cells = test: Inhibition of HT-29 cell proliferation (CellTiter-Glo cell viability); format: cell-based; details: Homo sapiens; HT-29 cells (TP53 R273H mutation), 120 hours culture with compound; read-out: IC50
Protocol: as §1, with “HT-29” for “OVCAR-3”, “R273H” for “R248Q”, “a McCOY's 5A” for “an RPMI 1640”
as §2, with “for 120” for “for 72”, “each well,” for “each well ,”, “Table 2.” for “Table 1.”, “Table 2” for “Table 1”, “inhibiting HT-29” for “inhibiting OVCAR-3”

T1 sequence (Q8NI77 whole entry): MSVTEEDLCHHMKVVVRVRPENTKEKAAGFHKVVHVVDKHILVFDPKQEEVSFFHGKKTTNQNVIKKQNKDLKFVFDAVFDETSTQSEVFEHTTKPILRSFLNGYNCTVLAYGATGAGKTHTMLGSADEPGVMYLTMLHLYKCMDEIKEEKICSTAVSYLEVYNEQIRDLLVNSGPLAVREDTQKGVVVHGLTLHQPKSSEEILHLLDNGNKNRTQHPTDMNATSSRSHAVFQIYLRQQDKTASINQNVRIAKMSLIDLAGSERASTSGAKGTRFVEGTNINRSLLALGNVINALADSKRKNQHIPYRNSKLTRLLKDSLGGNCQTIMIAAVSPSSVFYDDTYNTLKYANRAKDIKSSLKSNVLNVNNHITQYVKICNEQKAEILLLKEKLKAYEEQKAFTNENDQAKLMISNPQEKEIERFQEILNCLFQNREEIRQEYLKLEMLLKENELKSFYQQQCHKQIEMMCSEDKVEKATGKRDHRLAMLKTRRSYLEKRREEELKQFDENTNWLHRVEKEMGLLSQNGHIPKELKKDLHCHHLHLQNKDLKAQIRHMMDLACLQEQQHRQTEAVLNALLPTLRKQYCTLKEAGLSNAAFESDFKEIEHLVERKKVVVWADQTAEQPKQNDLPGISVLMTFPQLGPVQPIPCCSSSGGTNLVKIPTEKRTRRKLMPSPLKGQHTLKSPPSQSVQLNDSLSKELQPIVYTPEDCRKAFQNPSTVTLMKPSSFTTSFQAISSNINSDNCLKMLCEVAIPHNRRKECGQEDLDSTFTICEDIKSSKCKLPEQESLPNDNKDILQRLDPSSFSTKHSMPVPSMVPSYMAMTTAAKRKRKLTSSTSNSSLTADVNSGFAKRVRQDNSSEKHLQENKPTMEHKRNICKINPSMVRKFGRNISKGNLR
T1 sequence (P68363 whole entry partner): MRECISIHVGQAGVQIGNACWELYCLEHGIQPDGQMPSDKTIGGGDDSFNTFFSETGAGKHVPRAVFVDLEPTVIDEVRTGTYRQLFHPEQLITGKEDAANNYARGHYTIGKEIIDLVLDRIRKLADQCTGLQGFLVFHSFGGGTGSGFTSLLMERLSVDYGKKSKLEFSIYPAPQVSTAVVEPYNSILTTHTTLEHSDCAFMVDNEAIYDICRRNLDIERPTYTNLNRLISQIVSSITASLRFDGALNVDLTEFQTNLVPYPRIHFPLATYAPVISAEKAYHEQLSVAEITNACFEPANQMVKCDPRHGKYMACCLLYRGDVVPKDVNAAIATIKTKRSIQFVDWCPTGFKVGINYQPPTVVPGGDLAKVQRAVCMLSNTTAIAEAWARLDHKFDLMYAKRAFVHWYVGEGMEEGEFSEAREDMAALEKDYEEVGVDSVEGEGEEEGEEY
T1 sequence (Q9BVA1 whole entry partner): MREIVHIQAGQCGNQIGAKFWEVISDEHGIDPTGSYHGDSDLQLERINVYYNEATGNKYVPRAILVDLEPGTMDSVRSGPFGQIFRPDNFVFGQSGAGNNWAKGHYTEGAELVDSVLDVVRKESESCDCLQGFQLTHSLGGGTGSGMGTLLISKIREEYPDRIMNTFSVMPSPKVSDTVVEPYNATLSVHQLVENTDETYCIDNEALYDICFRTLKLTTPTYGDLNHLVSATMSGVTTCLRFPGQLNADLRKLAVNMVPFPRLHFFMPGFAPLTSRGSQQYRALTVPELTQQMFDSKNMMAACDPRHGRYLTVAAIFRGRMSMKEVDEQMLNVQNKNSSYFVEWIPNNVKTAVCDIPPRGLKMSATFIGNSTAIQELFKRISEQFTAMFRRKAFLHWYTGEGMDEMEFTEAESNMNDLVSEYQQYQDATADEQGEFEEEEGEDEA

Compound	pIC50 (OVCAR-3 cells)	pIC50 (recombinant human KIF18A)	pIC50 (HT-29 cells)
CCS(=O)(=O)Nc1ccc(C(=O)Nc2ccc(-c3ccnnc3)c(N3CCC(F)(F)CC3)c2)c(N2CCC3(CC2)CC3)c1 [Example 13, N-(3-(4,4-difluoropiperidin-1-yl)-4-(pyridazin-4-yl)phenyl)-4-(ethylsulfonamido)-2-(6-azaspiro[2.5]octan-6-yl)benzamide]	8.23	7.08	7.94
CCS(=O)(=O)Nc1ccc(C(=O)Nc2ccc(-c3ncccn3)c(N3CCC(F)(F)CC3)c2)c(N2CCC3(CC2)CC3)c1 [Example 14, N-(3-(4,4-difluoropiperidin-1-yl)-4-(pyrimidin-2-yl)phenyl)-4-(ethylsulfonamido)-2-(6-azaspiro[2.5]octan-6-yl)benzamide]	8.23	6.92	8.00
CCS(=O)(=O)Nc1ccc(C(=O)Nc2ccc(-c3nccn3C)c(N3CCC(F)(F)CC3)c2)c(N2CCC3(CC2)CC3)c1 [Example 26, N-(3-(4,4-difluoropiperidin-1-yl)-4-(1-methyl-1H-imidazol-2-yl)phenyl)-4-(ethylsulfonamido)-2-(6-azaspiro[2.5]octan-6-yl)benzamide]	–	6.97	7.51
CCS(=O)(=O)Nc1ccc(C(=O)Nc2ccc(-c3nnnn3C)c(N3CCC(F)(F)CC3)c2)c(N2CCC3(CC2)CC3)c1 [Example 34, N-(3-(4,4-difluoropiperidin-1-yl)-4-(1-methyl-1H-tetrazol-5-yl)phenyl)-4-(ethylsulfonamido)-2-(6-azaspiro[2.5]octan-6-yl)benzamide]	7.30	7.05	–
CCS(=O)(=O)Nc1ccc(C(=O)Nc2ccc(-c3ncc[nH]3)c(N3CCC(C)(O)CC3)c2)c(N2CCC3(CC2)CC3)c1 [Example 43, 4-(ethylsulfonamido)-N-(3-(4-hydroxy-4-methylpiperidin-1-yl)-4-(1H-imidazol-2-yl)pheny 1)-2-(6-azaspiro[2.5]octan-6-yl)benzamide]	7.73	6.94	–
CCS(=O)(=O)Nc1ccc(C(=O)Nc2ccc(-c3ccnnc3)c(OC3CC(F)(F)C3)c2)c(N2CCC3(CC2)CC3)c1 [Example 48, N-(3-(3,3-difluorocyclobutoxy)-4-(pyridazin-4-yl)phenyl)-4-(ethylsulfonamido)-2-(6-azaspiro[2.5]octan-6-yl)benzamide]	7.84	6.99	–
CCS(=O)(=O)Nc1ccc(C(=O)Nc2ccc(-c3nnco3)c(OC3CC(F)(F)C3)c2)c(N2CCC3(CC2)CC3)c1 [Example 50, N-(3-(3,3-difluorocyclobutoxy)-4-(1,3,4-oxadiazol-2-yl)phenyl)-4-(ethylsulfonamido)-2-(6-azaspiro[2.5]octan-6-yl)benzamide]	7.72	7.13	–

The remaining molecules from weak to strong by pIC50 (recombinant human KIF18A), led by results:

pIC50 (OVCAR-3 cells)	pIC50 (recombinant human KIF18A)	pIC50 (HT-29 cells)	Compound
7.34	6.89	–	CCS(=O)(=O)Nc1ccc(C(=O)Nc2ccc(-n3ccnc3)c(C3(O)CCC(F)(F)CC3)c2)c(N2CCC3(CC2)CC3)c1 [Example 44, N-(3-(4,4-difluoro-1-hydroxycyclohexyl)-4-(1H-imidazol-1-yl)phenyl)-4-(ethylsulfonamido)-2-(6-azaspiro[2.5]octan-6-yl)benzamide]
7.75	6.90	–	CCS(=O)(=O)Nc1ccc(C(=O)Nc2ccc(-c3nnc(C)o3)c(OCC(F)(F)F)c2)c(N2CCC3(CC2)CC3)c1 [Example 52, 4-(ethylsulfonamido)-N-(4-(5-methyl-1,3,4-oxadiazol-2-yl)-3-(2,2,2-trifluoroethoxy)phenyl) -2-(6-azaspiro[2.5]octan-6-yl) benzamide]
7.56	6.97	–	CCS(=O)(=O)Nc1ccc(C(=O)Nc2ccc(-c3nnco3)c(OCC(F)(F)F)c2)c(N2CCC3(CC2)CC3)c1 [Example 51, N-(4-(1,3,4-oxadiazol-2-yl)-3-(2,2,2-trifluoroethoxy)phenyl)-4-(ethylsulfonamido)-2-(6-azaspiro[2.5]octan-6-yl)benzamide]
–	7.06	–	CCS(=O)(=O)Nc1ccc(C(=O)Nc2ccc(-n3ccnc3)c(N3CCC(C)(O)CC3)c2)c(N2CCC3(CC2)CC3)c1 [Example 42, 4-(ethylsulfonamido)-N-(3-(4-hydroxy-4-methylpiperidin-1-yl)-4-(1H-imidazol-1-yl)pheny 1)-2-(6-azaspiro[2.5]octan-6-yl)benzamide]
8.43	7.16	8.33	O=C(Nc1ccc(-c2cccnn2)c(N2CCC(F)(F)CC2)c1)c1ccc(NS(=O)(=O)C2CC2)cc1N1CCC2(CC1)CC2 [Example 15, 4-(cyclopropanesulfonamido)-N-(3-(4,4-difluoropiperidin-1-yl)-4-(pyridazin-3-yl)phenyl)-2-(6-azaspiro[2.5]octan-6-yl)b enzamide]
8.60	7.20	8.41	CCS(=O)(=O)Nc1ccc(C(=O)Nc2ccc(-c3cccnn3)c(N3CCC(F)(F)CC3)c2)c(N2CCC3(CC2)CC3)c1 [Example 12, N-(3-(4,4-difluoropiperidin-1-yl)-4-(pyridazin-3-yl)phenyl)-4-(ethylsulfonamido)-2-(6-azaspiro[2.5]octan-6-yl)benzamide]
8.09	7.51	–	CCS(=O)(=O)Nc1ccc(C(=O)Nc2ccc(-n3cnnc3)c(N3CCC(F)(F)CC3)c2)c(N2CCC3(CC2)CC3)c1 [Example 27, N-(3-(4,4-difluoropiperidin-1-yl)-4-(4H-1,2,4-triazol-4-yl)phenyl)-4-(ethylsulfonamido)-2-(6-azaspiro[2.5]octan-6-yl)benz amide]
7.37	7.53	–	CCS(=O)(=O)Nc1ccc(C(=O)Nc2ccc(C(=O)O)c(N3CCC(F)(F)CC3)c2)c(N2CCC3(CC2)CC3)c1 [Example 2, 2-(4,4-difluoropiperidin-1-yl)-4-(4-(ethylsulfonamido)-2-(6-azaspiro[2.5]octan-6-yl)benzamido)benzoic acid]
–	8.42	–	CCS(=O)(=O)Nc1ccc(C(=O)Nc2ccc(-c3nnn[nH]3)c(N3CCC(F)(F)CC3)c2)c(N2CCC3(CC2)CC3)c1 [Example 33, N-(3-(4,4-difluoropiperidin-1-yl)-4-(1H-tetrazol-5-yl)phenyl)-4-(ethylsulfonamido)-2-(6-azaspiro[2.5]octan-6-yl)benzamide]
